Values quoted from earlier work as cited in patent EP4778540A1, “ANTIBODY-DRUG CONJUGATE CONTAINING HETEROCYCLIC COMPOUND HAVING ACTIVITY OF INDUCING DECOMPOSITION OF G12D MUTANT KRAS PROTEIN” (Astellas Pharma Inc., priority 2023, dated 2025).
Where a name gives a salt, the structure may show the parent alone.

Biological target: T1, mutant RAS G12D protein (Homo sapiens, UniProt P01116, G12D)
T1 construct: endogenous in cells; host or cells: AsPC-1 (human pancreatic cancer line)
Conditions: human G12D mutant KRAS-positive pancreatic cancer line AsPC-1, cited from earlier work; for DC50: DC50 of D10 calculated from a molecular weight in terms of 4 hydrochloride

T1 sequence (P01116 1-188 isoform P01116-2 G12D): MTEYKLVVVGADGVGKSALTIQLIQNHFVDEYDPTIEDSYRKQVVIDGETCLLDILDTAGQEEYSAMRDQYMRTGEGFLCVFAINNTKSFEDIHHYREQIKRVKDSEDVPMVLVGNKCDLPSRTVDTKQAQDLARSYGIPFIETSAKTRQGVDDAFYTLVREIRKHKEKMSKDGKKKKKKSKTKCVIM

SMILES | DC50 | Dmax
COC(C)COc1nc(N(C)C2CCNC2)c2cc(C3CC3)c(-c3c(C)c(F)cc4[nH]ncc34)c(OCc3ccc(-c4cn(C(C(=O)N5CC(O)CC5C(=O)NC(CO)c5ccc(-c6scnc6C)cc5)C(C)C)nn4)cc3)c2n1 [D7, (4R)-1-[(2S)-2-{4-[4-({[(7M)-6-cyclopropyl-7-(6-fluoro-5-methyl-1H-indazol-4-yl)-2-[(2S)-2-methoxypropoxy]-4-{methyl[(3S)-pyrrolidin-3-yl]amino}quinazolin-8-yl]oxy}methyl)phenyl]-1H-1,2,3-triazol-1-yl}-3-methylbutanoyl]-4-hydroxy-N-{(1R)-2-hydroxy-1-[4-(4-methyl-1,3-thiazol-5-yl)phenyl]ethyl}-L-prolinamide] | 10 nM | 
Cc1c(F)cc2[nH]ncc2c1-c1c(C2CC2)cc2c(N3CC4CC3CN4)nc(OC3CCOCC3)nc2c1OCc1ccc(C(=O)N2CCN(Cc3ccc4c(c3)n(C)c(=O)n4C3CCC(=O)NC3=O)CC2C)cc1 [D9, 3-(5-{[(3S)-4-{4-[({(7M)-6-cyclopropyl-4-[(1S,4S)-2,5-diazabicyclo[2.2.1]heptan-2-yl]-7-(6-fluoro-5-methyl-1H-indazol-4-yl)-2-[(oxan-4-yl)oxy]quinazolin-8-yl}oxy)methyl]benzoyl} -3-methylpiperazin-1-yl]methyl}-3-methyl-2-oxo-2,3-dihydro-1H-benzimidazol-1-yl)piperidine-2,6-dione] | 13 nM | 86%
Cc1c(F)cc2[nH]ncc2c1-c1c(C2CC2)cc2c(N3C[C@@H]4C[C@H]3CN4)nc(OC3CCOCC3)nc2c1OCc1ccc(C(=O)N2CCN(Cc3ccc4c(N5CCC(=O)NC5=O)nn(C)c4c3)C[C@@H]2C)cc1 [D10, 1-(6-{[(3S)-4-{4-[({(7M)-6-cyclopropyl-4-[(1S,4S)-2,5-diazabicyclo[2.2.1]heptan-2-yl]-7-(6-fluoro-5-methyl-1H-indazol-4-yl)-2-[(oxan-4-yl)oxy]quinazolin-8-yl}oxy)methyl]benzoyl}-3-methylpiperazin-1-yl]methyl}-1-methyl-1H-indazol-3-yl)-1,3-diazinane-2,4-dione n-hydrochloride] | 71 nM | 86%
CO[C@@H](C)COc1nc(N2C[C@@H]3C[C@H]2CN3)c2cc(C3CC3)c(-c3c(C)c(F)cc4[nH]ncc34)c(OCc3ccc(C(=O)N4CCN(Cc5ccc6c(c5)n(C)c(=O)n6C5CCC(=O)NC5=O)C[C@@H]4C)cc3)c2n1 (stereo partly drawn) [D11, 3-(5-{[(3S)-4-{4-[({(7M)-6-cyclopropyl-4-[(1S,4S)-2,5-diazabicyclo[2.2.1]heptan-2-yl]-7-(6-fluoro-5-methyl-1H-indazol-4-yl)-2-[(2S)-2-methoxypropoxy]quinazolin-8-yl}oxy)methyl]benzoyl}-3-methylpiperazin-1-yl]methyl}-3-methyl-2-oxo-2,3-dihydro-1H-benzimidazol-1-yl)piperidine-2,6-dione] | 8 nM | 86%
